Reference: patent publication US8465939B2, “Aging-related circulating particle-associated lipoprotein B oxidase (apoBNOX) and inhibitors thereof” (Nox Technologies, Inc., priority 2010, dated 2013)
Entries after “also recorded” stand apart in the source; their conditions may differ.

What was measured:
[1] = system: arNOX; conditions: cited from earlier work
[2] = system: apoBNOX; assay: superoxide dismutase-resistant apoBNOX activity by ferricytochrome c reduction; assay type: biochemical; conditions: for inhibition of apoBNOX: apoBNOX associated with lipoprotein particles
Protocol: Reduction of ferricytochrome c by superoxide was employed as the measure of superoxide dismutase-resistant apoBNOX activity (Mayo, L. A. and Curnutte, J., 1990, Meth. Enzyme. 186: 567-575; Butler, J. et al., 1982, J. Biol. Chem. 257: 10747-10750). The assay consists of 150 μl buffy coats in PBSG buffer (8.06 g NaCl, 0.2 g KCl, 0.18 g Na2HPO4, 0.13 g CaCl2, 0.1 MgCl2, 1.35 g glucose dissolved in 1000 ml deionized water, adjusted to pH 7.4, filtered and stored at 4° C.). Rates were determined using an SLM Aminco DW-2000 spectrophotometer (Milton Roy, Rochester, N.Y.) in the dual wave length mode of operation with continuous measurements over 1 min every 1.5 min. After 45 min, test compounds were added and the reaction was continued for an additional 45 min. After 45 min, a millimolar extinction coefficient of […] was used for reduced ferricytochrome c.
arNOX activity was assayed from measurements of superoxide production based on a standard method where reduction of ferricytochrome c was monitored from the increase in absorbance at 550 nm with reference at 540 nm (Butler et al., 1982). As a further check for the specificity of the apoBNOX activity, 60 units of superoxide dismutase (SOD) were added near the end of the assay to ascertain that the rate returned to base line. Rates were determined over 1 min at intervals of 1.5 min using a SLM Aminco DW 2000 spectrophotometer (Milton Roy, Rochester, N.Y.) in the dual wavelength mode of operation. An extinction coefficient of 19.1 mM^−1 cm^−1 was used for reduced ferricytochrome c.

[3] = molecular target: T1, recombinant arNOX SF2 (Homo sapiens, UniProt Q99805, F637E); assay: Lipid oxidation catalyzed by H2O2 formed from recombinant arNOX-generated superoxide (SF2); assay type: biochemical; conditions: SF2 + lecithin + SOD + inhibitor, incubated 2 h; without inhibitor 0.12, without SOD 0.06
T1 construct: made in house; host or cells: Escherichia coli BL21 (DE3), pET11a
Description: FIG. 4 illustrates the role of apoBNOX in the oxidation of the apoB protein associated with low density lipoprotein particles and the recognition of the oxidized LDL by macrophages, resulting in the formation of foam cells leading to fatty streaks and atherogenic plaques. In this scheme, the apoBNOX binds selectively to lipoprotein particle-associated apoB and withdraws electrons to form superoxide. The superoxide thus generated is converted to hydrogen peroxide by the action of superoxide dismutase. The hydrogen peroxide thus generated attacks lipids (particularly phosphatidylcholine) of the low density lipoprotein particles to form reactive lipid peroxides that then attack key lysine residues in the apoB. Evidence that superoxide generated by arNOX when converted to hydrogen peroxide is capable of oxidizing phosphatidylcholine is given by the data of Table 2.

[4] = Hydrophilicity / solubility; assay type: physicochemical
Description: (§1) This last characteristic might be problematic if hydroxytyrosol or tyrosol are pretended to be used in fat-based food products or supplements. Oxidation of hydroxytyrosol and tyrosol clearly affect the stability and preservation of both compounds. The hydroxytyrosol and tyrosol derivatives presented in this invention avoid these two problems. The hydroxyl groups on these derivatives are protected from oxidation by preparing hydroxytyrosol or tyrosol fatty acid esters. When compared to hydroxytyrosol and tyrosol, the hydroxytyrosol and tyrosol fatty acid esters are much more resistant against oxidation. At the same time, depending on the length of the fatty acid chain of the fatty acid esters, their solubility in fat-based food products will be increased. Hydroxytyrosol or tyrosol esters with a wide range of solubilities can be prepared, from totally water-soluble hydroxytyrosol or tyrosol derivatives when acetic acid is used in the formation of the ester to totally oil-soluble hydroxytyrosol or tyrosol derivatives when oleic acid is used in the formation of the ester. The hydroxytyrosol and tyrosol derivatives are hydrolyse in the intestinal tract of rats to their two components, hydroxytyrosol or tyrosol and the fatty acid. […] This implies that, after their hydrolysis, mentioned fatty acid esters can act as antioxidants to reduce or ameliorate diseases with an oxidative stress origin.

[5] = Hydrolysis and absorption in rats; assay type: in vivo
Description: as §1

[6] = Sensitivity to oxidation; assay type: physicochemical
Description: as §1

| inhibition of apoBNOX [2] | Compound | inhibition of arNOX activity of aging cells [1] | also measured |
| --- | --- | --- | --- |
| relatively ineffective | COC1=C(OC)C(=O)C(C/C=C(\C)CC/C=C(\C)CC/C=C(\C)CC/C=C(\C)CC/C=C(\C)CC/C=C(\C)CC/C=C(\C)CCC=C(C)C)=C(C)C1=O [CoQ8] | inhibited | – |
| relatively ineffective | COC1=C(OC)C(=O)C(C/C=C(\C)CC/C=C(\C)CC/C=C(\C)CC/C=C(\C)CC/C=C(\C)CC/C=C(\C)CC/C=C(\C)CC/C=C(\C)CCC=C(C)C)=C(C)C1=O [CoQ9] | inhibited | – |
| resist inhibition | COC1=C(OC)C(=O)C(C/C=C(\C)CC/C=C(\C)CC/C=C(\C)CC/C=C(\C)CC/C=C(\C)CC/C=C(\C)CC/C=C(\C)CC/C=C(\C)CC/C=C(\C)CCC=C(C)C)=C(C)C1=O [CoQ, coenzyme Q10] | inhibited | Lipid oxidation, Relative units [3]: 0.06 cm; inhibition of apoBNOX ([2]; listed as CoQ10): relatively ineffective |
| – | OCCc1ccc(O)c(O)c1 [Hydroxytyrosol, hydroxytyrosol] | – | hydrophilicity / solubility [4]: hydrophilic; absorption ([5]; rats, after hydrolysis of the esters, detected in plasma and cerebrospinal fluid): rapidly absorbed |
| – | OCCc1ccc(O)cc1 [Tyrosol, 4-hydroxyphenethyl alcohol] | – | hydrophilicity / solubility [4]: hydrophilic; apoBNOX activity, % inhibition ([2]; 100 μM tyrosol): 70%; sensitivity to oxidation [6]: sensitive to oxidation; absorption ([5]; rat, in vivo): rapidly absorbed |
| resist inhibition | O=c1cc(-c2ccc(O)cc2)oc2cc(O)cc(O)c12 [apigenin] | – | – |

| Compound | inhibition of apoBNOX [2] | inhibition of arNOX activity of aging cells [1] | also measured |
| --- | --- | --- | --- |
| superoxide dismutase | resist inhibition; also recorded: resistant to inhibition | – | – |
